# Where a name gives a salt, the structure may show the parent alone. Read-outs that look alike come from different tables or passages of the source.
# Experiments:
# [1] = molecular target: T1, human Granzyme B (hGzmB) (Homo sapiens, UniProt P10144); test: Human Granzyme B enzymatic inhibition assay (fluorogenic, kinetic); assay type: biochemical; settings: activity codes, Table 7; read-out: IC50 Activity Range
# T1 construct: purchased Froelich Lab, Northshore University Health Systems Research Institute, Evanston, Ill., USA
# T1 sequence (P10144 21-247): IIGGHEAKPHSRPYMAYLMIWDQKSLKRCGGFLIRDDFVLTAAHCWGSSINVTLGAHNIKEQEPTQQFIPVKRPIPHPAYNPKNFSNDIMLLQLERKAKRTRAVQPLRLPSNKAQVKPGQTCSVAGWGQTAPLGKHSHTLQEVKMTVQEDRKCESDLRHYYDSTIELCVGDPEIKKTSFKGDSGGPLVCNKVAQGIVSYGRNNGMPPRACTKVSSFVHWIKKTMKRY
# Protocol: A specific 2× assay buffer was prepared for the enzyme to be tested (see Table 2 for final 1× assay buffer compositions). If the assay buffer included DTT, it was added immediately prior to running the assay. A 2× enzyme mix was prepared (see Table 3 for enzyme assay conditions) at 80 uL per well. Compounds were screened at one or two appropriate concentrations (to determine the percent inhibition at those concentrations) and/or a full dose response curve (typically 8 points, to identify the IC50) in duplicate, triplicate, or higher replicates as needed. An appropriate control was also assessed in full dose response, in duplicate for each assay/plate. Background control wells consisted of 1× assay buffer, DMSO (5% v/v) and substrate. Positive control wells consisted of enzyme, DMSO (5% v/v) and substrate. Test compounds and control compounds were diluted in DMSO to […] the final desired concentration. For example, a test compound may be tested in dose response, in serial, tripling dilution condition starting at 20 uM and ending at 9.1 nM (or any appropriate concentration range and dilution scheme). Control compounds were prepared similarly. Diluted compounds were prepared in a dilution plate and transferred to the reaction plate (96-well medium binding plate (Greiner Bio-One FLUOTRAC™)) to allow for the desired final concentrations when added to the enzyme with AB. After mixing, the reaction plate was placed on a shaker (at 300 RPM) for 5 min, followed by incubation (covered) on the bench, for 20 min. Plates were warmed to reaction temperature (see Table 3) for a total incubation time of 30 min. Plates so prepared were ready for addition of substrate and the subsequent reaction.
# (§1) An appropriate substrate for each assay was prepared in advance at 2× the final desired concentration (see Table 2) in DMSO. The appropriate substrate mix was added to each appropriate well on the reaction plate, and the plate was read immediately in the TECAN plate reader (TECAN INFINITE® M1000 Pro), set to the correct wavelength as needed for each assay (see Table 3) using 25 cycles, kinetic interval of 1 min, number of reads per well of 20 with shaking set to 1 s, double orbital, 2 mm amplitude. For fluorescent assays the gain was set to optimal (50%).
# An in vitro fluorogenic detection assay for assessing the IC50 and/or percent inhibition at a given concentration of inhibitors against human Granzyme B (hGzmB) enzyme was performed as described in Example D1. When appropriate, percent inhibition data was collected and fitted to generate IC50 data using GraphPad Prism 5 (GraphPad Software, La Jolla Calif. USA, www.graphpad.com) and its non-linear regression analysis tools or other equivalent tools. […]
# as §1, with “5)” for “2)”, “assay buffer. 30 uL of the” for “DMSO. The”, “6)” for “3)”, “15” for “25”, “(100% with gain regulation) for all assays except human GzmB which was set to 85 (with the z set at 23000 um).” for “(50%).”
# An in vitro fluorogenic detection assay for assessing the IC50 and/or percent inhibition at a given concentration of inhibitors against human Granzyme B (hGzmB) enzyme was performed as described in Example D5. When appropriate, percent inhibition data was collected and fitted to generate IC50 data using GraphPad Prism 5 (GraphPad Software, La Jolla Calif. USA, www.graphpad.com) and its non-linear regression analysis tools or other equivalent tools.
# [2] = Kinetic solubility determination in PBS; assay type: physicochemical; settings: PBS 1X pH 7.4, 2.0% DMSO, 24 hour incubation at ambient temperature; for solubility at 24 h: phosphate buffered saline (PBS 1×), 21 °C, pH 7.4, aqueous buffer, kinetic from dmso stock
# Protocol: Kinetic solubility buffer (phosphate buffered saline (PBS, 1×) at pH 7.4) was prepared from PBS (10×) solution, (Fisher Scientific, Pittsburgh, Pa., USA, 10×), by adding PBS (50 mL, 10×) to approximately water (450 mL HPLC grade). The volume of the solution was then adjusted to 500 mL for a total dilution factor of 1:10 and a final PBS concentration of 1×. The pH of the final solution (PBS (1×)) was measured and found to be 7.4.
# A DMSO stock solution (typically 10 mM or greater) was used for each compound to be tested. A final DMSO concentration of 2.0% and maximum theoretical compound concentration of typically 200 μM (or greater) was achieved by diluting an aliquot (6 μl) of each stock with kinetic solubility buffer (294 μl, PBS (1×) at pH 7.4) using a liquid handling system (Hamilton STARlet, Hamilton Robotics, Inc., Reno, Nev., USA) and incubated directly in a solubility filter plate (Millipore, Billerica, Mass., USA). Following 24 hour incubation at ambient temperature (20.5-21.7° C.), each sample was vacuum filtered. The filtrate was injected into the chemiluminescent nitrogen detector for quantification (Automated Discovery Workstation, Analiza, Inc., Cleveland, Ohio, USA). Each result was reported both in μM and μg/mL units. Three separate on-board performance indicating standards were assayed in triplicate with each test compound to ensure test results were within the acceptable range.
# The equimolar nitrogen response of the detector was calibrated using standards which spanned the dynamic range of the instrument from 0.08 to 4500 μg/ml nitrogen. Each filtrate was quantified with respect to this calibration curve. Each calculated solubility value was corrected for background nitrogen present in the DMSO, and buffer used to prepare each sample. All reported values for samples containing adjacent nitrogen atoms in a ring structure were corrected for the expected non-equimolar response. Each calculated solubility result assumed that each sample was free of nitrogen containing impurities and was stable under the assay conditions. Analyses were performed at Analiza Inc. (Cleveland, Ohio, USA) by published methods (Bhattachar, S. N., et al, J. Pharma. BioMed Anal. 41:152-7 2006).
Compound,IC50 [1] [µM],further results
"O=C(Cc1ccccc1)N[C@H](C(=O)NCC(=O)N1c2ccccc2C[C@H]1C(=O)NCc1nn[nH]n1)C1CCCCC1 [Example A11, (2S)-1-{2-[(2S)-2-Cyclohexyl-2-(2-Phenylacetamido)Acetamido]Acetyl}-N-(2H-1,2,3,4-Tetrazol-5-Ylmethyl)-2,3-Dihydro-1H-Indole-2-Carboxamide]",1 to 10,
"CC[C@H](C)[C@H](NC(=O)C[C@H](N)C(=O)O)C(=O)NCC(=O)N1c2ccccc2C[C@H]1C(=O)NCc1nn[nH]n1 [Example A39, (2S)-2-Amino-3-{[(1S,2S)-2-Methyl-1-({2-Oxo-2-[(2S)-2-[(2H-1,2,3,4-Tetrazol-5-Ylmethyl)Carbamoyl]-2,3-Dihydro-1H-Indol-1-Yl]Ethyl}Carbamoyl)Butyl]Carbamoyl}Propanoic Acid]",0.1 to 1,
"CC[C@H](C)[C@H](NC(=O)Cc1cccc(N)c1)C(=O)NCC(=O)N1c2ccccc2C[C@H]1C(=O)NCc1nn[nH]n1 [Example A9, (2S)-1-{2-[(2S,3S)-2-[2-(3-Aminophenyl)Acetamido]-3-Methylpentanamido]Acetyl}-N-(2H-1,2,3,4-Tetrazol-5-Ylmethyl)-2,3-Dihydro-1H-Indole-2-Carboxamide Hydrochloride]",0.1 to 1,
"CC[C@H](C)[C@H](NC(=O)C1CCCC1C(=O)O)C(=O)NCC(=O)N1c2ccccc2C[C@H]1C(=O)NCc1nn[nH]n1 (single isomer, unassigned) [Example A57-2]",< 0.1,
"CC[C@H](C)[C@H](NC(=O)CCC(C(=O)O)c1ccccc1)C(=O)NCC(=O)N1c2ccccc2C[C@H]1C(=O)NCc1nn[nH]n1 (stereo partly drawn) [Example A51, 4-{[(1S,2S)-2-Methyl-1-({2-Oxo-2-[(2S)-2-[(2H-1,2,3,4-Tetrazol-5-Ylmethyl)Carbamoyl]-2,3-Dihydro-1H-Indol-1-Yl]Ethyl}Carbamoyl)Butyl]Carbamoyl}-2-Phenylbutanoic Acid]",< 0.1,
"CC(C)(F)C(NC(=O)Cc1ccccc1)C(=O)NCC(=O)N1c2ccccc2C[C@H]1C(=O)NCc1nn[nH]n1 (mixture of isomers) [Example A41, (2S)-1-{2-[3-Fluoro-3-Methyl-2-(2-Phenylacetamido)Butanamido]Acetyl}-N-(2H-1,2,3,4-Tetrazol-5-Ylmethyl)-2,3-Dihydro-1H-Indole-2-Carboxamide]",> 10,
"CC[C@H](C)[C@H](NC(=O)C1CCCC1C(=O)O)C(=O)NCC(=O)N1c2ccccc2C[C@H]1C(=O)NCc1nn[nH]n1 (single isomer, unassigned) [Example A57-1]",< 0.1,
"CC[C@H](C)[C@H](NC(=O)Cc1csc2ccccc12)C(=O)N[C@H]1CCc2cccc3c2N(C1=O)[C@H](C(=O)NCc1c[nH]nn1)C3 [Willoughby 20, reference compound]",,"Solubility in aqueous PBS Buffer (1X, pH 7.4), uM [2]: 4.2-4.9 uM; Solubility in aqueous PBS Buffer (1X, pH 7.4), ug/mL [2]: 2.6-3.0 ug/mL"
"CC[C@H](C)[C@H](NC(=O)Cc1ccccc1)C(=O)NCC(=O)N1c2ccccc2C[C@H]1C(=O)NCc1csnn1 [Example B2, (2S)-1-{2-[(2S,3S)-3-Methyl-2-(2-Phenylacetamido)Pentanamido]Acetyl}-N-(1,2,3-Thiadiazol-4-Ylmethyl)-2,3-Dihydro-1H-Indole-2-Carboxamide]",,"solubility at 24 h ([2]; read-out: Solubility in aqueous PBS Buffer (1X, pH 7.4)): 12.6 µM; solubility at 24 h ([2]; read-out: Solubility in aqueous PBS Buffer (1X, pH 7.4), ug/mL): 8.4 µg/mL"

# Further lines, with some results ahead:
IC50 [1] [µM],Compound,further results
1 to 10,CC[C@H](C)[C@H](NC(=O)Cc1ccccc1)C(=O)NCC(=O)N1c2ccccc2C[C@H]1C(=O)NC(C)c1nn[nH]n1 (stereo partly drawn) [Example B3],
1 to 10,"CC(C)(C)[C@H](NC(=O)Cc1ccccc1)C(=O)NCC(=O)N1c2ccccc2C[C@H]1C(=O)NCc1nn[nH]n1 [Example C6, (2S)-1-{2-[(2S)-3,3-Dimethyl-2-(2-Phenylacetamido)Butanamido]Acetyl}-N-(2H-1,2,3,4-Tetrazol-5-Ylmethyl)-2,3-Dihydro-1H-Indole-2-Carboxamide]",
1 to 10,"CC[C@H](C)[C@H](NC(=O)Cc1ccccc1)C(=O)N[C@@H](CCCC(=O)O)C(=O)N1c2ccccc2C[C@H]1C(=O)NCc1nn[nH]n1 [Example C17, (5S)-5-[(2S,3S)-3-Methyl-2-(2-Phenylacetamido)Pentanamido]-6-Oxo-6-[(2S)-2-[(2H-1,2,3,4-Tetrazol-5-Ylmethyl)Carbamoyl]-2,3-Dihydro-1H-Indol-1-Yl]Hexanoic Acid]",
0.1 to 1,"CC[C@H](C)[C@H](NC(=O)Cc1ccccc1)C(=O)NCC(=O)N1c2ccc(C)cc2CC1C(=O)NCc1c[nH]nn1 (mixture of isomers) [Example B7, 5-Methyl-1-{2-[(2S,3S)-3-Methyl-2-(2-Phenylacetamido)Pentanamido]Acetyl}-N-(1H-1,2,3-Triazol-4-Ylmethyl)-2,3-Dihydro-1H-Indole-2-Carboxamide]",
< 0.1,"CC[C@H](C)[C@H](NC(=O)Cc1nn[nH]n1)C(=O)NCC(=O)N1c2ccccc2C[C@H]1C(=O)NCc1c[nH]nn1 [Example C39, (2S)-1-{2-[(2S,3S)-3-Methyl-2-[2-(2H-1,2,3,4-Tetrazol-5-Yl)Acetamido]Pentanamido]Acetyl}-N-(1H-1,2,3-Triazol-4-Ylmethyl)-2,3-Dihydro-1H-Indole-2-Carboxamide]",
> 10,"CC[C@H](C)[C@H](NC(=O)Cc1ccccc1)C(=O)N[C@@H](CCCCN)C(=O)N1c2ccccc2C[C@H]1C(=O)NCc1nn[nH]n1 [Example C18, (2S)-1-[(2S)-6-Amino-2-[(2S,3S)-3-Methyl-2-(2-Phenylacetamido)Pentanamido]Hexanoyl]-N-(2H-1,2,3,4-Tetrazol-5-Ylmethyl)-2,3-Dihydro-1H-Indole-2-Carboxamide]",
> 10,"O=C(O)CCC(=O)NC1(C(=O)NCC(=O)N2c3ccccc3C[C@H]2C(=O)NCc2nn[nH]n2)CCCC1 [Example C29, 3-{[1-({2-Oxo-2-[(2S)-2-[(2H-1,2,3,4-Tetrazol-5-Ylmethyl)Carbamoyl]-2,3-Dihydro-1H-Indol-1-Yl]Ethyl}Carbamoyl)Cyclopentyl]Carbamoyl}Propanoic Acid]",
